According to US20090220562A1, “Osteogenic and anti-adipogenic oxysterols” (priority 2005, published 2009):

Tests used:
Assay type in all cases: cell-based, mouse
[1] = test system: lipoprotein lipase (LPL) and adipocyte P2 gene (aP2); assay: Northern blotting for adipogenic genes in troglitazone-treated M2 cells; conditions: 10 μM Tro with 10 μM 20S, 10 days
Description: RNA isolation and Northern blot analysis—Following treatment of cells under appropriate experimental conditions, total RNA was isolated using the RNA isolation kit from Stratagene (La Jolla, Calif., U.S.A.). Total RNA ([…]) was run on a 1% agarose/formaldehyde gel and transferred to Duralon-UV membranes (Strategene, CA, U.S.A.) and cross-linked with UV light. The membranes were hybridized overnight at 60 degree C. with ^32P-labeled mouse osteocalcin cDNA probe, mouse lipoprotein lipase (LPL), mouse adipocyte protein 2 (aP^2) PCR-generated probes, human 28S or 18S rRNA probes obtained from Geneka Biotechnology (Montreal, Quebec, Canada) and Maxim Biotech (San Francisco, Calif., U.S.A.), respectively. […] The extent of gene induction was determined by densitometry.
Test 2: (A) M2 cells at confluence were treated in RPMI containing 10% FBS with control vehicle or 10 μM troglitazone (Tro) in the absence or presence of 10 μM 20S or 22S-hydroxycholesterol. After 10 days, adipocytes were visualized by oil Red O staining and quantified by light microscopy, shown in (B). […] After 10 days, total RNA was isolated and analyzed for lipoprotein lipase (LPL), adipocyte P2 gene (aP2) or 18S rRNA expression by Northern blotting as described (Ref). […]

[2] = test system: ERK1 and ERK2; assay: Western blot for native and phosphorylated ERK in M2 cells; conditions: 5 μM 20S oxysterol for 1, 4, or 8 hours
Description: Western blot analysis—After treatments, cells were lysed in lysis buffer, protein concentrations determined using the Bio-Rad protein assay (Hercules, Calif. U.S.A.), and SDS-PAGE performed as previously described. Probing for native and phosphorylated ERKs was performed as previously reported.
(A) M2 cells at confluence were pretreated for four hours with RPMI containing 1% FBS, followed by treatment with control vehicle or 5 μM 20S oxysterol for 1, 4, or 8 hours. Next total cell extracts were prepared and analyzed for levels of native or phosphorylated ERK (pERK) using specific antibodies as previously described. Data from a representative of four experiments are shown, each treatment shown in duplicate samples. (B) M2 cells at confluence were pretreated for 2 hours with control vehicle (C) or 20 μM PD98059 (PD) in osteogenic medium as previously described. Next, a combination of 22R and 20S oxysterols (RS, 5 μM each) were added to appropriate wells as indicated. After 10 days of incubation, matrix mineralization was quantified by the ^45Ca incorporation assay as previously described. […] (C) M2 cells at confluence were pretreated for 2 hours with 20 µM PD98059 (PD) in RPMI containing 5% FBS. […] After 10 days, adipocytes were visualized by oil Red O staining and quantified by light microscopy as previously described. […]

[3] = test system: Runx2; assay: Runx2 DNA binding and protein expression in M2-10B4 cells; conditions: doses of 5-15 μM
Description: Method: Marrow stromal cells (M2-10B4 (M2)) were treated with doses of 5-15 μM 20S-hydroxycholestrol.
Method: Marrow stromal cells (M2-10B4 (M2)) were treated with doses of 5-15 μM20S-hydroxycholestrol. Groups of cells were pre-treated with 22S or 22R.
Method: Marrow stromal cells (M2-10B4 (M2)) were pretreated with Wnt signaling inhibitor, DKK-1 (1 μg/ml), then treated with 20S-hydroxycholestrol and 22(8)-hydroxycholesterol.

For `CC(C)CCC[C@](C)(O)[C@H]1CC[C@H]2[C@@H]3CC=C4C[C@@H](O)CC[C@]4(C)[C@H]3CC[C@@]21C` [20S-hydroxycholesterol], the “expression of adipocyte P2 gene (aP2)” value [1] was “inhibition of the expression”, the “expression of lipoprotein lipase (LPL)” value [1] was “inhibition of the expression” and the “activation of ERK1 and ERK2” value [2] was “sustained activation”. The “Runx2 DNA binding and protein expression” value [3] was “induction”.
